Patent US11491128B2, “Reversible nitroxide derivatives of nitroalkenes that mediate nitrosating and alkylating reactions” (University of Pittsburgh—Of the Commonwealth System of …, priority 2016, dated 2022)

Columns and labels:
[1] = UV-Vis analysis of NO2-CLA generation by decomposition of NO2—NO3—CLA at different pH (312 nm); format: physicochemical; conditions: 312 nm (FIG. 1)
Method: Synthetic NO2—NO3—CLA standards were generated by performing independent reactions of 0.5 mg conjugated-9,11-linoleic acid (CLA, cat. no. UC-60A, Nu-Check Prep Inc., Elysian, Minn.) with 2 mM sodium nitrite (NaNO2) in 1 ml artificial gastric fluid for 1 h at 37° C., under continuous agitation. The lipid fraction was extracted by hexane, 50 μl were dried under a stream of nitrogen gas, dissolved in 300 μl methanol and decomposition of the NO2—NO3—CLA with generation of NO2-CLA was measured spectrophotometrically at 312 nm (FIG. 1). The addition of 10 μl acetic acid to the methanolic solution confirmed the stability of NO2—NO3—CLA at acidic pH (FIG. 1, diamond curve).

[2] = N-nitrosation of 2,3-diaminonaphtalene (DAN) to 2,3-naphthotriazole (NAT), followed by HPLC-MS/MS; format: physicochemical; conditions: for formation of NAT: 20 μM DAN
Method: To investigate if the degradation of NO2—NO3-CLA induced generation of nitrosative species, N-nitrosation of 2,3-diaminonaphtalene (DAN) to yield 2,3-naphthotriazole (NAT) was performed. Briefly, 25 μl synthetic NO2—NO3-CLA standards were dried under a stream of nitrogen gas, and resuspended in 1 ml of solvents at different polarity with 20 μM DAN. Then, formation of NAT was followed over 60 min by HPLC-MS/MS (FIG. 4).
Analysis of NAT was performed by HPLC-MS/MS using an analytical C18 Luna column (2×20 mm, 5 μm, Phenomenex) at a 0.75 ml/min flow rate, with a gradient solvent system consisting of water containing 0.1% acetic acid (solvent A) and acetonitrile containing 0.1% acetic acid (solvent B). Samples were chromatographically resolved using the following gradient program: 10-100% solvent B (0-3.3 min); 100% solvent B (3.3-4.2 min) followed by 0.8 min re-equilibration to initial conditions. An API4000 Q-trap triple quadrupole mass spectrometer (Applied Biosystems, San Jose, Calif.), equipped with an electrospray ionization source (ESI) in positive mode, was used with the following parameters: declustering potential, 70 V; entrance potential 5; collision cell exit potential 10; collision energy 35; and a desolvation temperature of 650° C. NAT was analyzed using the MRM transition 170.1/115.1.

## CCCCCCC(/C=C/C(CCCCCCCC(=O)O)[N+](=O)[O-])O[N+](=O)[O-] (centres unmarked) [NO2—NO3-CLA, (E)-9-nitro-12-(nitrooxy)octadec-10-enoic acid]
[1]; methanolic solution + 10 μl phosphate buffer 50 mM pH 7.4 or 10 μl ammonium hydroxide
  degradation of NO2—NO3—CLA with generation of NO2-CLA: pH-dependent
[1]; phosphate buffer pH 7.4 versus ammonium hydroxide
  rate of NO2-CLA generation on pH increase from pH 7.4 to more basic pH: faster generation of NO2-CLA
[2]; dissolved in methanol, over 60 min (FIG. 4, square curve)
  formation of NAT: none formation of NAT was observed
[2]; phosphate buffer 50 mM, pH 7.4 with 100 μM DTPA
  stability of NO2—NO3-CLA in basic pH: instability
[2]; phosphate buffer 50 mM, pH 7.4 with 100 μM DTPA, over 60 min (FIG. 4, circle curve)
  formation of NAT: time dependent generation of NAT
